In patent US5679695A, “Aryl and heteroaryl compounds having anti-retrovirus activity” (The University of Connecticut, priority 1995, dated 1997):
Values joined by “and” are separate entries in the source; they are usually repeats but may differ in a detail not shown here. Equal values may be shown once. Read-outs that look alike come from different tables or passages of the source.

What was measured:
[1] = system: CEM-Z; assay: XTT toxicity control, uninfected culture, CEM-Z; type: cell-based
Protocol: (§1) Another assay for testing the efficacy of the compounds is the procedure* used in the National Cancer Institute's test for agents active against Human Immunodeficiency Virus (HIV). It is designed to detect agents acting at any stage of the virus reproductive cycle. The assay basically involves the killing of T4 lymphocytes by HIV. Small amounts of HIV are added to cells, and a complete cycle of virus reproduction is necessary to obtain the required cell killing. Agents that interact with virions, cells, or virus gene-products to interfere with viral activities will protect cells from cytolysis. The system is automated in several features to accommodate large numbers of candidate agents and is generally designed to detect anti-HIV activity. However, compounds that degenerate, or are rapidly metabolized in the culture conditions may not show activity in this screen. All tests are compared with at least one positive (e.g., AZT-treated) control done at the same time under identical conditions.
(§2) * Weislow. O. W., Kiser, R., Fine, D., Bader, J., Shoemaker, R. H., Boyd, M. R.: New soluble-formazan assay for HIV-1 cytopathic effects: application to high-flux screening of synthetic and natural products for AIDS-antiviral activity. J. Natl. Cancer Inst. 81:577-586, 1989.
(§3) 1. The Candidate agent is dissolved in dimethyl sulfoxide (unless otherwise instructed) then diluted 1:100 in cell culture medium before preparing serial half-log10 dilutions. T4 lymphocytes (CEM cell line) are added and after a brief interval HIV-1 added, resulting in a 1:200 final dilution of the compound. Uninfected cells with the compound serve as a toxicity control, and infected and uninfected cells without compound serve as basic controls.
(§4) 2. Cultures are incubated at 37° in a 5% carbon dioxide atmosphere for 6 days.
(§5) 3. The tetrazolium salt, XTT, is added to all wells, and cultures are incubated to allow formazan color development by viable cells.
(§6) 4. Individual wells are analyzed spectrophotometrically to quantitate formazan production, and in addition are viewed microscopically for detection of viable cells and confirmation of protective activity.
(§7) 5. Drug-treated virus-infected cells are compared with drug-treated noninfected cells and with other appropriate controls (untreated infected and untreated noninfected: cells, drug-containing wells without cells, etc.) on the same plate.
(§8) 6. Data are reviewed in comparison with other tests done at the same time and a determination about activity is made.

[2] = XTT toxicity control, uninfected culture, CEM-Z; type: cell-based; conditions: human, cem-z cells, read-out: Uninfected culture response
Protocol: as §1, §2, §3, §4, §5, §6, §7, §8

[3] = system: HIV-1; assay: XTT assay of protection from HIV-1 cytopathic effect, infected, CEM-IW; type: cell-based, Human Immunodeficiency Virus; conditions: Human immunodeficiency virus 1, CEM-IW, summary table; read-out: CEM-IW EC50
Protocol: as §1, §2, §3, §4, §5, §6, §7, §8

[4] = system: HIV-1; assay: microbe, parasite or virus in culture; type: cell-based; conditions: for viability at 17.9 µM: 1.79 × 10^-5 Molar
Protocol: as §1, §2, §3, §4, §5, §6, §7, §8

[5] = system: LP-BM5 MuLV; assay: LP-BM5 MuLV UV-XC plaque assay; type: cell-based, Murine Leukemia Virus
Protocol: One such method is used to determine the effectiveness of representative compounds and compositions of the present invention in the Rauscher and LP-BMS Murine Leukemia Virus (MLV) In Vitro Assays.
SC-1 cells were grown as monolayers in 6-well tissue culture plates (Falcon). The a test compound was added to the cultures at the time of virus inoculation (approximately 24 hours after the cells were seeded) and was present for 3 days, at which time the cultures were irradiated with UV light. All compounds were solubilized in DMSO prior to dilution in grown medium. The highest concentration of DMSO present in the cultures was 0.05%. The test cultures (triplicate cultures per drug concentrate) each contained 2 ml of test compound diluted in growth medium (Eagle's minimum) essential medium (EMEM) supplemented with 5% heat-inactivated fetal bovine serum (FBS) and 0.5 ml of the virus suspension diluted to produce a countable number of plaques per well. The six virus control cultures contained 2 ml of medium and 0.5 ml of the virus suspension. NSC606170(ddC) was included as a positive control. drug. Drug cytotoxicity control cultures (containing test compound) but no virus and cell control culture (containing no test compound) or virus were included in the assay. On day 3 post-virus inoculation, the cultures were irradiated and XC cells were added. Three days after V-irradiation, the cultures were fixed with formalin and stained with 0.1% crystal violet. The plaques were counted with the aid of a dissection microscope.
Using the procedure, the following data is generated from representative compounds of the presnet invention.

Compound: O=[N+]([O-])c1ccccc1S(=O)(=O)c1ccccc1 [Compound 1, 1-Nitro-2-(phenylsulfonyl)benzene]
- Uninfected culture response ([1]; 1.78 × 10^-4 Molar, 178 µM): 72.1%
- Uninfected culture response ([1]; 1.79 × 10^-5 Molar, 17.9 µM): 103.0%
- Uninfected culture response ([1]; 1.79 × 10^-6 Molar, 1.79 µM): 99.7%
- Uninfected culture response ([1]; 1.79 × 10^-7 Molar, 0.179 µM): 102.5%
- Uninfected culture response ([1]; 5.65 × 10^-5 Molar, 56.5 µM): 101.8%
- Uninfected culture response ([1]; 5.66 × 10^-6 Molar, 5.66 µM): 100.0%
- Uninfected culture response ([1]; 5.67 × 10^-7 Molar, 0.567 µM): 99.8%
- Uninfected culture response ([1]; 5.68 × 10^-8 Molar, 0.0568 µM): 104.3%
- IC50 ([1]; uninfected culture (toxicity)): > 178 µM
- viability at 17.9 µM ([2]; 1.79 × 10^-5 Molar): 101%
- viability at 1.79 µM ([2]; 1.79 × 10^-6 Molar): 97.9%
- viability at 0.179 µM ([2]; 1.79 × 10^-7 Molar): 101%
- viability at 56.5 µM ([2]; 5.65 × 10^-5 Molar): 103%
- viability at 5.66 µM ([2]; 5.66 × 10^-6 Molar): 98.7%
- viability at 0.567 µM ([2]; 5.67 × 10^-7 Molar): 99.6%
- viability at 0.0568 µM ([2]; 5.68 × 10^-8 Molar): 101%
- EC50 [3]: 4.41 µM
- Conclusion ([4]; CEM-V): ACTIVE
- Infected culture response ([4]; CEM-V, 1.79 × 10^-6 Molar, 1.79 µM): 9.3%
- Infected culture response ([4]; CEM-V, 1.79 × 10^-7 Molar, 0.179 µM): 8.7%
- Infected culture response ([4]; CEM-V, 1.89 × 10^-4 Molar, 189 µM): 87.3%
- Infected culture response ([4]; CEM-V, 1.89 × 10^-5 Molar, 18.9 µM): 110.5%
- Infected culture response ([4]; CEM-V, 1.89 × 10^-6 Molar, 1.89 µM): 11.4%
- Infected culture response ([4]; CEM-V, 1.90 × 10^-7 Molar, 0.19 µM): 12.1%
- Infected culture response ([4]; CEM-V, 5.66 × 10^-6 Molar, 5.66 µM): 36.6%
- Infected culture response ([4]; CEM-V, 5.67 × 10^-7 Molar, 0.567 µM): 8.3%
- Infected culture response ([4]; CEM-V, 5.68 × 10^-8 Molar, 0.0568 µM): 9.4%
- Infected culture response ([4]; CEM-V, 5.98 × 10^-5 Molar, 59.8 µM): 95.2%
- Infected culture response ([4]; CEM-V, 5.99 × 10^-6 Molar, 5.99 µM): 65.3% and 90.9%
- Infected culture response ([4]; CEM-V, 6.00 × 10^-7 Molar, 0.6 µM): 8.3%
- Infected culture response ([4]; CEM-V, 6.01 × 10^-8 Molar, 0.0601 µM): 8.7%
- Conclusion ([4]; CEM-Z): ACTIVE
- Infected culture response ([4]; CEM-Z, 1.79 × 10^-6 Molar, 1.79 µM): 47.1% and 26.4%
- Infected culture response ([4]; CEM-Z, 5.65 × 10^-5 Molar, 56.5 µM): 93.1%
- Infected culture response ([4]; CEM-Z, 5.66 × 10^-6 Molar, 5.66 µM): 58.3%
- viability at 17.9 µM ([4]; Human immunodeficiency virus 1, CEM-V, read-out: Infected culture response): 92.2%
- viability at 1.79 µM ([4]; Human immunodeficiency virus 1, CEM-V, 1.79 × 10^-6 Molar, read-out: Infected culture response): 8%
- viability at 0.179 µM ([4]; Human immunodeficiency virus 1, CEM-V, 1.79 × 10^-7 Molar, read-out: Infected culture response): 10.3%
- viability at 189 µM ([4]; Human immunodeficiency virus 1, CEM-V, 1.89 × 10^-4 Molar, read-out: Infected culture response): 86%
- viability at 18.9 µM ([4]; Human immunodeficiency virus 1, CEM-V, 1.89 × 10^-5 Molar, read-out: Infected culture response): 100%
- viability at 1.89 µM ([4]; Human immunodeficiency virus 1, CEM-V, 1.89 × 10^-6 Molar, read-out: Infected culture response): 18.2%
- viability at 0.19 µM ([4]; Human immunodeficiency virus 1, CEM-V, 1.90 × 10^-7 Molar, read-out: Infected culture response): 14%
- viability at 5.66 µM ([4]; Human immunodeficiency virus 1, CEM-V, 5.66 × 10^-6 Molar, read-out: Infected culture response): 31.1%
- viability at 0.567 µM ([4]; Human immunodeficiency virus 1, CEM-V, 5.67 × 10^-7 Molar, read-out: Infected culture response): 10.6%
- viability at 0.0568 µM ([4]; Human immunodeficiency virus 1, CEM-V, 5.68 × 10^-8 Molar, read-out: Infected culture response): 10.1%
- viability at 59.8 µM ([4]; Human immunodeficiency virus 1, CEM-V, 5.98 × 10^-5 Molar, read-out: Infected culture response): 79.7%
- viability at 0.6 µM ([4]; Human immunodeficiency virus 1, CEM-V, 6.00 × 10^-7 Molar, read-out: Infected culture response): 15.5%
- viability at 0.0601 µM ([4]; Human immunodeficiency virus 1, CEM-V, 6.01 × 10^-8 Molar, read-out: Infected culture response): 14.7%
- viability at 1.79 µM ([4]; Human immunodeficiency virus 1, CEM-V, dose printed 1.79 × 10^-6 Molar in the line between 5.66 × 10^-6 and 5.65 × 10^-5, read-out: Infected culture response): 53.1%
- viability at 17.9 µM ([4]; Human immunodeficiency virus 1, CEM-Z, read-out: Infected culture response): 85.7%
- viability at 56.5 µM ([4]; Human immunodeficiency virus 1, CEM-Z, 5.65 × 10^-5 Molar, read-out: Infected culture response): 92.3%
- viability at 5.66 µM ([4]; Human immunodeficiency virus 1, CEM-Z, 5.66 × 10^-6 Molar, read-out: Infected culture response): 74.5%
- viability at 1.79 µM ([4]; Human immunodeficiency virus 1, CEM-Z, dose printed 1.79 × 10^-6 Molar in the line between 5.66 × 10^-6 and 5.65 × 10^-5, read-out: Infected culture response): 91.3%
- Mean plaque count ([5]; 1 × 10^-4 M): 254
- Plaque count, replicate #1 ([5]; 1 × 10^-4 M): 219
- Plaque count, replicate #2 ([5]; 1 × 10^-4 M): 216
- Plaque count, replicate #3 ([5]; 1 × 10^-4 M): 328
- Mean plaque count ([5]; 1 × 10^-5 M): 261
- Plaque count, replicate #1 ([5]; 1 × 10^-5 M): 335
- Plaque count, replicate #2 ([5]; 1 × 10^-5 M): 216
- Plaque count, replicate #3 ([5]; 1 × 10^-5 M): 232
- Mean plaque count ([5]; 1 × 10^-6 M): 255
- Plaque count, replicate #1 ([5]; 1 × 10^-6 M): 337
- Plaque count, replicate #2 ([5]; 1 × 10^-6 M): 218
- Plaque count, replicate #3 ([5]; 1 × 10^-6 M): 210
- Mean plaque count ([5]; 1 × 10^-7 M): 207
- Plaque count, replicate #1 ([5]; 1 × 10^-7 M): 201
- Plaque count, replicate #2 ([5]; 1 × 10^-7 M): 192
- Plaque count, replicate #3 ([5]; 1 × 10^-7 M): 228
- Mean plaque count ([5]; 1 × 10^-8 M): 246
- Plaque count, replicate #1 ([5]; 1 × 10^-8 M): 222
- Plaque count, replicate #2 ([5]; 1 × 10^-8 M): 204
- Plaque count, replicate #3 ([5]; 1 × 10^-8 M): 311
- inhibition at 100 µM ([5]; Murine leukemia virus, SC-1, 1 × 10^-4 M, read-out: % Plaque Reduction): 11%
- inhibition at 10 µM ([5]; Murine leukemia virus, SC-1, 1 × 10^-5 M, read-out: % Plaque Reduction): 9%
- inhibition at 1 µM ([5]; Murine leukemia virus, SC-1, 1 × 10^-6 M, read-out: % Plaque Reduction): 11%
- inhibition at 0.1 µM ([5]; Murine leukemia virus, SC-1, 1 × 10^-7 M, read-out: % Plaque Reduction): 27%
- inhibition at 0.01 µM ([5]; Murine leukemia virus, SC-1, 1 × 10^-8 M, read-out: % Plaque Reduction): 14%
